# Patent publication US6407204B1 (priority 1997, dated 2002)
# Entries after “also recorded” stand apart in the source; their conditions may differ.
# Tests used:
# [1] = tested on: cholinergic neurons of the QA lesioned striatum; settings: rat, in vivo
# Male Sprague-Dawley rats [2] = settings: rat, in vivo
# [3] = tested on: GABAergic neurons of the QA lesioned striatum; settings: rat, in vivo
# Male Sprague-Dawley rats [4] = settings: rat, in vivo; remark: listed apart in the source
# formalin test = settings: literature; ifenprodil at a high dose; cited from earlier work
# [5] = tested on: NMDA polyamine site, forebrain membrane preparations; settings: cited from earlier work
# NMDA receptor = settings: literature, cited from earlier work; for motor impairment: relative to analgesic doses
compound,measurement,setting,value
Gly-Glu-Gla-Gla-Leu-Gln-Gla-Asn-Gln-Gla-Leu-Ile-Arg-Gla-Lys-Ser-Asn-NH2 [Conantokin G],QA lesion-induced loss of ChAT activity,[1],completely blocked
same,dose required to inhibit / significantly attenuate phase I flinches,Male Sprague-Dawley rats [2],1.0 µg
same,dose required to inhibit / significantly attenuate phase II flinches,Male Sprague-Dawley rats [2],0.05 µg
same,QA lesion-induced loss of GAD activity,[3],completely blocked; also recorded: complete prevention
β-endorphin,"dose at which maximal possible effect was observed, phase I",Male Sprague-Dawley rats [2],1.0 µg
same,"dose at which maximal possible effect was observed, phase II",Male Sprague-Dawley rats [2],3.3 µg
same,dose required to inhibit / significantly attenuate phase I flinches,Male Sprague-Dawley rats [2],0.3 µg
same,dose required to inhibit / significantly attenuate phase II flinches,Male Sprague-Dawley rats [2],0.6 µg
same,effect of the single agent alone,Male Sprague-Dawley rats [2],no effect
same,effect on flinches in both phase I and phase II,Male Sprague-Dawley rats [2],dose-dependent decrease in flinches
same,effect on phase I flinches,Male Sprague-Dawley rats [2],no effect
same,effect on phase II flinches,Male Sprague-Dawley rats [2],no effect
same,overt side effects,Male Sprague-Dawley rats [4],overt signs of sedation and motor impairment
CC(C(O)c1ccc(O)cc1)N1CCC(Cc2ccccc2)CC1 (stereo not shown) [ifenprodil],analgesic effect in the formalin test,formalin test,did not have an analgesic effect; also recorded: no effect
Gly-Glu-Gla-Gla-Val-Ala-Lys-Met-Ala-Ala-Glu-Leu-Ala-Arg-Glu-Asn-Ile-Ala-Lys-Gly-Cys-Lys-Val-Asn-Cys-Tyr-Pro [Conantokin R],dose required to inhibit / significantly attenuate phase I flinches,Male Sprague-Dawley rats [2],3.3 µg
same,dose required to inhibit / significantly attenuate phase II flinches,Male Sprague-Dawley rats [2],3.3 µg
NCCCNCCCCNCCCN [spermine],maximal effective concentration for enhancement of [3H]MK-801 binding,[5],about 20 μM
"c1ccc(C2(N3CCCCC3)CCCCC2)cc1 [phenylcyclidine (PCP), phenylcyclidine]",analgesic activity,NMDA receptor,show analgesic activity
same,motor impairment,NMDA receptor,show motor impairment at equivalent doses
C[C@]12N[C@H](Cc3ccccc31)c1ccccc12 [MK-801],analgesic activity,NMDA receptor,show analgesic activity
same,motor impairment,NMDA receptor,show motor impairment at equivalent doses
same,dose required to inhibit / significantly attenuate phase II flinches,Male Sprague-Dawley rats [2],30 µg
same,side effects at the dose attenuating phase II flinches,Male Sprague-Dawley rats [4],"side effects, including head weaving"
same,toxicity at doses that decreased flinches,Male Sprague-Dawley rats [4],clear toxicity
same,analgesic effect in the formalin test,formalin test,submaximal analgesic effect
